In publication PMC3355094 (PLoS Pathogens, 2012):
Where “and” joins values, the source holds several entries; their conditions need not be identical. Equal values may be shown once. Read-outs that look alike come from different tables or passages of the source.

Experiments:
[1] = ligand Glc1,3Man1,2Man1,2Man; ref 2 of Table S6 (Kozlov et al. 2010); cited from earlier work
[2] = design: method as in ref 3 of Table S6 (Gupta et al. 2008); details: ligand Glc1,3Man1,2ManOMe; ref 3 of Table S6 (Gupta et al. 2008); cited from earlier work
CCL1 = experiment: Glycan array analysis of CCL1 (CFG mammalian glycan array V4.2); assay type: binding, Coprinopsis cinerea; details: Alexa Fluor 488 labeled CCL1 200 µg/ml, array V4.2, average of triplicates
Description: (§1) Purified CCL1 and CCL2 were fluorescently labeled with Alexa Fluor 488 (Invitrogen) according to the manufacturer's protocol and used (at a final concentration of 200 µg/ml) to probe versions 4.2 and 3.1, respectively, of the mammalian glycan array offered by Core H of the Consortium for Functional Glycomics (CFG).

CCL2 = experiment: Glycan array analysis of CCL2 (CFG mammalian glycan array V3.1); assay type: binding, Coprinopsis cinerea; details: Alexa Fluor 488 labeled CCL2 200 µg/ml, array V3.1, average of triplicates
Description: as §1

CCL2 wild-type [3] = molecular target: T1, CCL2 wild-type (Coprinopsis cinerea, UniProt B3GA02); assay type: binding
T1 sequence (B3GA02 2-142 limits assumed): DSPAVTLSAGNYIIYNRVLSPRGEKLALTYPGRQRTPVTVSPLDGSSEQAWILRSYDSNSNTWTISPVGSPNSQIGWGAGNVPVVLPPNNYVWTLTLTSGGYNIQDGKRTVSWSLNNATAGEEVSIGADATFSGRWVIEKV

WBA II = assay type: binding; details: read-out: KD [μmol]; cited from earlier work
CCL2 wild-type [4] = molecular target: T1, CCL2 wild-type; assay type: binding; remark: listed apart in the source
MOA = experiment: Literature thermodynamic binding data of lectin-carbohydrate interactions compiled in Table S6 for comparison; conditions not given; design: method as in values quoted from other papers; details: read-out: KD [μmol]; cited from earlier work
Calreticulin = experiment: as above; design: method as in values quoted from other papers; details: read-out: KD [μmol]; cited from earlier work
ConA = experiment: as above; design: method as in values quoted from other papers; details: read-out: KD [μmol]; cited from earlier work
[5] = molecular target: Cholera toxin B subunit (CTB); assay type: binding; details: read-out: KD [μmol]; cited from earlier work
[6] = design: method as in ref 5 of Table S6 (Turnbull et al. 2004); details: ligand GM1os; ref 5 of Table S6 (Turnbull et al. 2004); cited from earlier work
CCL2 (Wild type) = molecular target: T2, CCL2 (Wild type) (Coprinopsis cinerea, UniProt B3GA02); experiment: biochemical; assay type: binding
T2 construct: recombinant from E. coli, eight N-terminal His-residues (His8), monomer
T2 sequence (B3GA02 2-142): as the sequence (B3GA02 2-142 limits assumed) above

RSL = assay type: binding; details: read-out: KD [μmol]; cited from earlier work
Jacalin = experiment: Literature thermodynamic binding data of lectin-carbohydrate interactions compiled in Table S6 for comparison; conditions not given; design: method as in values quoted from other papers; details: read-out: KD [μmol]; cited from earlier work
[7] = carbohydrate titrated to CCL2 wild-type

Compound | RFU (relative fluorescence units) (CCL1) | RFU (relative fluorescence units) (CCL2) | other results
Calreticulin |  |  | –TΔS [1]: 3.75 kcal/mol; –ΔH [1]: 12 kcal/mol; –TΔS [2]: -0.813 kcal/mol; –ΔH [2]: 7.15 kcal/mol
[4OSO3][6OSO3]Gal1-4GlcNAc-Sp0 | 5 RFU | 222.7 RFU | 
Man1-3(Man1-6)Man1-4GlcNAc1-4GlcNAc-Sp13 | 116 RFU | 525.3 RFU | 
CO[C@@H]1O[C@H](CO)[C@@H](O)[C@H](O[C@@H]2O[C@@H](C)[C@@H](O)[C@@H](O)[C@@H]2O)[C@H]1NC(C)=O [Fucα1,3GlcNAc-OMe] |  |  | NMR titration (CCL2 wild-type [3]): no binding
CC(=O)NC1C(OC2C(CO)OC(O)C(O)C2O)OC(CO)C(OC2OC(CO)C(O)C(O)C2O)C1OC1OC(C)C(O)C(O)C1O (stereo not shown) [Galβ1,4[Fucα1,3]GlcNAcβ1,4Gal] |  |  | NMR titration (CCL2 wild-type [3]): large chemical shift deviations, slow to intermediate exchange
[3OSO3]Gal1-3GalNAc-Sp8 | 118 RFU | 216.8 RFU | 
CO[C@@H]1O[C@H](CO)[C@@H](O[C@@H]2O[C@H](CO)[C@H](O)[C@H](O)[C@H]2O[C@@H]2O[C@@H](C)[C@@H](O)[C@@H](O)[C@@H]2O)[C@H](O)[C@H]1NC(C)=O [Fuc1,2Gal1,4GlcNAcOMe, Fucα1,2Galβ1,4GlcNAc methyl glycoside] |  |  | Kd (WBA II): 3200 nM
[3OSO3][6OSO3]Gal1-4[6OSO3]GlcNAc-Sp0 | 3 RFU | 367.7 RFU | 
GlcNAc1-2Man1-3(GlcNAc1-2Man1-6)Man1-4GlcNAc1-4GlcNAc-Sp13 | 68 RFU | 674.3 RFU | 
CO[C@@H]1O[C@H](CO)[C@@H](O[C@@H]2O[C@H](CO)[C@H](O)[C@H](O)[C@H]2O)[C@H](O[C@@H]2O[C@@H](C)[C@@H](O)[C@@H](O)[C@@H]2O)[C@H]1NC(C)=O [Galβ1,4[Fucα1,3]GlcNAcβ1-OMe] |  |  | drop in affinity (CCL2 wild-type [4]): ~300 fold
C[C@@H]1O[C@@H](O[C@H]2C(O)O[C@H](CO)[C@H](O)[C@@H]2O[C@H]2O[C@H](CO)[C@H](O)[C@H](O)[C@H]2O)[C@@H](O)[C@H](O)[C@@H]1O (stereo partly shown) [Galα1,3[Fucα1,2]Gal, blood group B trisaccharide] |  |  | Kd (MOA): 36000 nM
[3OSO3]Gal1-4[6OSO3]GlcNAc-Sp8 | 333 RFU | 101.0 RFU | 
CC(=O)N[C@H]1[C@H](O[C@H]2[C@H](O[C@@H]3O[C@@H](C)[C@@H](O)[C@@H](O)[C@@H]3O)[C@@H](NC(C)=O)[C@H](OCCCCCC(=O)O)O[C@@H]2CO)O[C@H](CO)[C@@H](O)[C@@H]1O [GlcNAcβ1,4[Fucα1,3]GlcNAcβ1-sp, GlcNAcβ1,4[Fucα1,3]GlcNAcβ-O(CH2)5COONa] |  |  | ΔH (CCL2 wild-type [4]): -11.9 kcal/mol; −TΔS (CCL2 wild-type [4]): 3.9 kcal/mol; NMR titration (CCL2 wild-type [3]; [7]): large chemical shift deviations, slow exchange
CC(=O)N[C@H]1C(O)O[C@H](CO)[C@@H](O[C@@H]2O[C@H](CO)[C@H](O)[C@H](O[C@H]3O[C@H](CO)[C@H](O)[C@H](O)[C@H]3O)[C@H]2O)[C@@H]1O (stereo partly shown) [Gal1,3Gal1,4GlcNAc, Galα1,3Galβ1,4GlcNAc] |  |  | Kd (MOA): 42300 nM
OC[C@H]1O[C@H](O[C@@H]2[C@H](O)[C@@H](O[C@@H]3[C@@H](O[C@@H]4C(O)O[C@H](CO)[C@@H](O)[C@@H]4O)O[C@H](CO)[C@@H](O)[C@@H]3O)O[C@H](CO)[C@H]2O)[C@H](O)[C@@H](O)[C@@H]1O (stereo partly shown) [Glcα1,3Manα1,2Manα1,2Man, Glcα1,3Manα1,2Manα1,2Man tetrasaccharide] |  |  | Kd (Calreticulin): 770 nM
CO[C@H]1O[C@H](CO[C@H]2O[C@H](CO)[C@@H](O)[C@H](O)[C@@H]2O)[C@@H](O)[C@H](O[C@H]2O[C@H](CO)[C@@H](O)[C@H](O)[C@@H]2O)[C@@H]1O [Man1,6[Man1,3]ManOMe, Manα1,6[Manα1,3]Man methyl glycoside] |  |  | Kd (ConA): 2000 nM
[6OSO3]Gal1-4[6OSO3]Glc-Sp8 | 20 RFU | 298.1 RFU | 
CC(=O)N[C@H]1[C@H](O[C@@H]2[C@H](O[C@]3(C(=O)O)C[C@H](O)[C@@H](NC(C)=O)[C@H]([C@H](O)[C@H](O)CO)O3)[C@@H](O)[C@H](O[C@H]3[C@H](O)[C@@H](O)C(O)O[C@@H]3CO)O[C@@H]2CO)O[C@H](CO)[C@H](O)[C@@H]1O[C@@H]1O[C@H](CO)[C@H](O)[C@H](O)[C@H]1O (stereo partly shown) [GM1os, GM1 ganglioside oligosaccharide] |  |  | Kd [5]: 43 nM
Cholera toxin B subunit (CTB): cholera-toxin B subdomain |  |  | –TΔS [6]: 7.36 kcal/mol; –ΔH [6]: 17.3 kcal/mol
[3OSO3][6OSO3]Gal1-4GlcNAc-Sp0 | 25 RFU | 193.4 RFU | 
[3OSO3]Gal1-4Glc-Sp8 | 29 RFU | 152.3 RFU | 

Compound | RFU (relative fluorescence units) (CCL1) | RFU (relative fluorescence units) (CCL2) | other results
Neu5Ac2-6Gal1-4GlcNAc1-2Man1-3(Neu5Ac2-6Gal1-4GlcNAc1-2Man1-6)Man1-4GlcNAc1-4GlcNAc-Sp12 | 122 RFU | 183.9 RFU | 
CO[C@@H]1O[C@H](CO)[C@@H](O)[C@H](O[C@@H]2O[C@@H](C)[C@@H](O)[C@@H](O)[C@@H]2O)[C@H]1NC(C)=O [Fucα1,3GlcNAc-OMe, Fucα1,3GlcNAc methyl glycoside] |  |  | Kd (CCL2 (Wild type)): > 500000 nM
CO[C@@H]1O[C@@H](C)[C@@H](O)[C@@H](O)[C@@H]1O [FucOMe, methyl fucopyranoside] |  |  | Kd (RSL): 730 nM
[3OSO3]Gal1-4GlcNAc-Sp8 | 110 RFU | 110.8 RFU | 
CO[C@H]1O[C@H](CO)[C@H](O)[C@H](O)[C@H]1O [GalOMe, methyl galactopyranoside] |  |  | Kd (Jacalin): 58000 nM
GlcNAc1-3(GlcNAc1-4)(GlcNAc1-6)GlcNAc-Sp8 | 264 RFU | 103.1 RFU | 
CC(=O)N[C@H]1[C@H](OCCN)O[C@H](CO)[C@@H](O)[C@@H]1O [-GlcNAc–Sp0] |  | 172.7 RFU | 
NCCCO[C@H]1O[C@H](CO)[C@@H](O)[C@H](O)[C@@H]1O [-D-Man–Sp8] |  | 152.9 RFU and 130.5 RFU | 
6-H2PO3Man-Sp8 | 3 RFU | 118.9 RFU | 
-Neu5Ac–Sp11 |  | 119.3 RFU | 
C[C@@H]1O[C@@H](O[C@H]2[C@H](O[C@H]3[C@H](O)[C@@H](O)C(O)O[C@@H]3CO)O[C@H](CO)[C@H](O)[C@@H]2O)[C@@H](O)[C@H](O)[C@@H]1O (stereo partly shown) [2-Fucosyllactose, 2'-fucosyllactose] |  |  | Kd (RSL): 250 nM
CO[C@@H]1O[C@H](CO)[C@@H](O[C@@H]2O[C@H](CO)[C@H](O)[C@H](O)[C@H]2O)[C@H](O[C@@H]2O[C@@H](C)[C@@H](O)[C@@H](O)[C@@H]2O)[C@H]1NC(C)=O [Galβ1,4[Fucα1,3]GlcNAcβ1-OMe, Lewis X trisaccharide methyl glycoside] |  |  | Kd (CCL2 (Wild type)): 456000 nM
[4OSO3]Gal1-4GlcNAc-Sp8 | 17 RFU | 350.4 RFU | 
-GalNAc–Sp8 |  | 151.8 RFU and 273.6 RFU | 
[6OSO3]Gal1-4Glc–Sp8 |  | 269.4 RFU | 
CO[C@H]1O[C@H](CO)[C@@H](O)[C@H](O)[C@@H]1O[C@H]1O[C@H](CO)[C@@H](O)[C@H](O[C@H]2O[C@H](CO)[C@@H](O)[C@H](O)[C@H]2O)[C@@H]1O [Glc1,3Man1,2ManOMe, Glcα1,3Manα1,2Manα-OMe (methyl glycoside)] |  |  | Kd (Calreticulin): 1800 nM
Gal1-3GlcNAc1-2Man1-3(Gal1-3GlcNAc1-2Man1-6)Man1-4GlcNAc1-4GlcNAc-Sp19 |  | 453.7 RFU | 
Neu5Acα2,3Galβ1,4Glc |  |  | NMR titration (CCL2 wild-type [3]; [7]): no binding
-L-Fuc–Sp9 |  | 136.8 RFU | 
NeuAc2-3[6OSO3]Gal1-4GlcNAc–Sp8 |  | 40316.6 RFU | 
